Laboratory results from US20090030086A1, “ANTIMICROBIAL AGENTS” (priority 2005, published 2009).
Converted amounts (≈) assume the structure as drawn. Read-outs that look alike come from different tables or passages of the source.

How the values were obtained:
S. aureus ATCC 29213 [1] = experiment: MBC assay; assay type: cell-based, Staphylococcus aureus
Protocol: (§1) The staphylococci and enterococci were cultured and maintained on Mueller-Hinton Medium (agar and broth) at pH 7.2; they were incubated aerobically at 37° C. for 24 hours.
(§2) This assay, normally carried out after an MIC assay, determines the minimum concentration of a compound that is lethal to the micro-organism being tested.
(§3) These samples were then individually sub-cultured on non-selective agar medium, under the incubation conditions described above. Following incubation they were examined visually for bacterial growth.
(§4) The following experiments all used S. aureus ATCC 29213 as the test organism. MIC, MBC and DDA assays, as described above, were carried out using a range of different benzoquinones and hydroquinones. Supplemented DDA assays, in the presence of salt, lipid and blood, were also conducted.

S. aureus ATCC 29213 [2] = experiment: Supplemented disc diffusion assay; assay type: cell-based, Staphylococcus aureus; details: for zone of inhibition at 200 µg/disc: Staphylococcus aureus, ATCC29213, 24 h
Protocol: as §1
(§5) A sterile paper disc was impregnated with a sample of the test compound and a minimum of 30 minutes allowed for the solvents to evaporate as far as possible. The disc was then placed on an agar plate onto which the test micro-organism had been inoculated. The plate was then incubated under the conditions described above, following which it was examined visually for signs of bacterial growth. […] The diameter of this zone of “inhibition” was measured using a ProtoCOL™ automated zone sizer (Synbiosis, Cambridge, UK).
(§6) Performance under these conditions can provide a more reliable indication of activity on topical application. For assays conducted using S. aureus strains, the supplements were defibrinated horse blood (5% v/v), lipid (Tween™ 80 at 1% v/v) and sodium chloride (100 mM). For those using Propionibacterium spp. strains, the supplements were lipid (Tween™ 80 at 1% v/v) and sodium chloride (100 mM).
as §4
(§7) For most DDA assays, 200 μg of each compound was loaded onto each disc.

P. acnes NCTC 737 [3] = experiment: MBC assay; assay type: cell-based, Propionibacterium acnes
Protocol: (§8) The Propionibacterium spp organisms were cultured and maintained on Wilkins-Chalgren Anaerobe Medium (agar and broth) at pH 6.0; cultures were incubated anaerobically at 37° C. for 72 hours.
as §2, §3
(§9) MIC, MBC and DDA assays, as described above, were carried out using a range of different benzoquinones and hydroquinones. Supplemented DDA assays, in the presence of salt and lipid, were also conducted.

S. aureus ATCC 29213 [4] = experiment: Disc diffusion assay (DDA); assay type: cell-based, Staphylococcus aureus; details: for zone of inhibition at 200 µg/disc: Staphylococcus aureus
Protocol: as §1, §5
(§10) The area of the zone of inhibition was calculated from the measured zone diameter (D) using the formula π(D/2)^2.
as §7

P. acnes NCTC 737 [5] = experiment: MIC assay; assay type: cell-based, Propionibacterium acnes
Protocol: 2. Propionibacterium spp.—the principal propionibacterial strain used in these studies was Propionibacterium acnes NCTC 737.
as §8
(§11) This is a standard international method for quantitatively assessing the antimicrobial activity of a compound in a liquid medium. The method used a 96-well microtitre plate, capable of holding about 200 μl of liquid per well. […] The culture media were as described above for the relevant test organisms.
(§12) The wells were inoculated with a liquid suspension of freshly grown micro-organism and incubated under the conditions described above. After incubation, the microtitre plate was examined visually (with the aid of a light box) for cloudiness in each well, which would indicate microbial growth. The MIC value was recorded as the lowest concentration of test compound required to inhibit microbial growth, i.e., the lowest concentration for which the liquid in the well remained clear.
(§13) The assays were conducted in duplicate and included both negative (culture medium only) and positive (culture medium, diluting solvent and inoculum) controls.
as §9

P. acnes NCTC 737 [6] = experiment: Supplemented disc diffusion assay; assay type: cell-based, Propionibacterium acnes; details: for zone of inhibition at 200 µg/disc: Cutibacterium acnes, NCTC737, 72 h
Protocol: as §8, §5, §6, §9, §7

P. acnes NCTC 737 [7] = experiment: Disc diffusion assay (DDA); assay type: cell-based, Propionibacterium acnes; details: for zone of inhibition at 200 µg/disc: Cutibacterium acnes
Protocol: as §8, §5, §10, §7

S. aureus ATCC 29213 [8] = experiment: MIC assay; assay type: cell-based, Staphylococcus aureus
Protocol: 1. Staphylococcus aureus—the principal staphylococcal test micro-organism used in these studies was Staphylococcus aureus ATCC 29213. This strain is the one recommended for QC/QA purposes in Minimum Inhibitory Concentration (MIC) assays by the US Clinical and Laboratory Standards Institute (formerly the NCCLS), an FDA-recognised body.
as §1, §11, §12, §13, §4

[9] = S. aureus ATCC 29213, Tween 80 at 1% v/v, 200 μg per disc (thymoquinone 50 μg, 2,6-dimethoxy-p-benzoquinone 100 μg)
[10] = S. aureus ATCC 29213, defibrinated horse blood 5% v/v, 200 μg per disc (thymoquinone 50 μg, 2,6-dimethoxy-p-benzoquinone 100 μg)
[11] = S. aureus ATCC 29213, sodium chloride 100 mM, 200 μg per disc (thymoquinone 50 μg, 2,6-dimethoxy-p-benzoquinone 100 μg)
[12] = S. aureus ATCC 29213, unsupplemented agar, 200 μg per disc (thymoquinone 50 μg, 2,6-dimethoxy-p-benzoquinone 100 μg)
[13] = P. acnes NCTC 737, Wilkins-Chalgren broth pH 6.0, anaerobic, 37° C., 72 hours
[14] = P. acnes NCTC 737, Tween 80 at 1% v/v, 200 μg per disc (2,6-dimethoxy-p-benzoquinone 100 μg)
[15] = P. acnes NCTC 737, sodium chloride 100 mM, 200 μg per disc (2,6-dimethoxy-p-benzoquinone 100 μg)
[16] = P. acnes NCTC 737, unsupplemented agar, 200 μg per disc (2,6-dimethoxy-p-benzoquinone 100 μg)
[17] = S. aureus ATCC 29213, Mueller-Hinton broth pH 7.2, aerobic, 37° C., 24 hours

Row | Compound | MBC (S. aureus ATCC 29213 [1]) [µg/mL] | MIC/MBC ratio (S. aureus ATCC 29213 [1]) | DDA + lipid (S. aureus ATCC 29213 [2]; [9]) [mm] | DDA + blood (S. aureus ATCC 29213 [2]; [10]) [mm] | DDA + salt (S. aureus ATCC 29213 [2]; [11]) [mm] | MBC (P. acnes NCTC 737 [3]; P. acnes NCTC 737) [µg/mL] | MIC/MBC ratio (P. acnes NCTC 737 [3]; P. acnes NCTC 737) | DDA (diameter of zone of inhibition) (S. aureus ATCC 29213 [4]; [12]) [mm] | MIC (P. acnes NCTC 737 [5]; [13]) [µg/mL] | DDA + lipid (P. acnes NCTC 737 [6]; [14]) [mm] | DDA + salt (P. acnes NCTC 737 [6]; [15]) [mm] | DDA (diameter of zone of inhibition) (P. acnes NCTC 737 [7]; [16]) [mm] | MIC (S. aureus ATCC 29213 [8]; [17]) [µg/mL] | further results
1 | CCCCCCOc1cc(C)c(O)c(C)c1C [1-o-hexyl-2,3,5-trimethyl-p-hydroquinone] | 7.8 (≈ 33 µM) | 0.5 | 0.0 | 0.0 | 8.72 | 31.25 (≈ 132 µM) | 0.5 | 8.61 | 15.6 (≈ 66 µM) | 0.0 | 16.43 | 16.64 | 3.9 (≈ 16.5 µM) | –
2 | Oc1ccc(O)c(F)c1F [2,3-difluoro-p-hydroquinone] | 15.6 (≈ 107 µM) | 1 | 14.63 | 10.27 | 15.56 | 31.25 (≈ 214 µM) | 0.25 | 15.77 | 7.8 (≈ 53.4 µM) | 0.0 | 0.0 | 0.0 | 15.6 (≈ 107 µM) | –
3 | COC1=C(OC)C(=O)C(C)=CC1=O [2,3-dimethoxy-5-methyl-p-benzoquinone] | – | 0.5 | – | – | – | – | 0.5 | – | – | – | – | – | – | MBC (S. aureus ATCC 29213 [1]; Staphylococcus aureus, ATCC29213, read-out: MBC): 15.6 µg/mL (≈ 85.6 µM); zone of inhibition at 200 µg/disc (S. aureus ATCC 29213 [2]; S. aureus ATCC 29213, Tween 80 at 1% v/v, 200 μg per disc (thymoquinone 50 μg, 2,6-dimethoxy-p-benzoquinone 100 μg), read-out: DDA + lipid): 26.5 mm; zone of inhibition at 200 µg/disc (S. aureus ATCC 29213 [2]; S. aureus ATCC 29213, defibrinated horse blood 5% v/v, 200 μg per disc (thymoquinone 50 μg, 2,6-dimethoxy-p-benzoquinone 100 μg), read-out: DDA + blood): 19.9 mm; zone of inhibition at 200 µg/disc (S. aureus ATCC 29213 [2]; S. aureus ATCC 29213, sodium chloride 100 mM, 200 μg per disc (thymoquinone 50 μg, 2,6-dimethoxy-p-benzoquinone 100 μg), read-out: DDA + salt): 25.8 mm; MBC (P. acnes NCTC 737 [3]; Cutibacterium acnes, NCTC737, P. acnes NCTC 737, read-out: MBC): 31.2 µg/mL (≈ 172 µM); zone of inhibition at 200 µg/disc (S. aureus ATCC 29213 [4]; ATCC29213, S. aureus ATCC 29213, unsupplemented agar, 200 μg per disc (thymoquinone 50 μg, 2,6-dimethoxy-p-benzoquinone 100 μg), read-out: DDA (diameter of zone of inhibition)): 26.8 mm; MIC (P. acnes NCTC 737 [5]; Cutibacterium acnes, NCTC737, P. acnes NCTC 737, Wilkins-Chalgren broth pH 6.0, anaerobic, 37° C., 72 hours, read-out: MIC): 15.6 µg/mL (≈ 85.6 µM); zone of inhibition at 200 µg/disc (P. acnes NCTC 737 [6]; P. acnes NCTC 737, Tween 80 at 1% v/v, 200 μg per disc (2,6-dimethoxy-p-benzoquinone 100 μg), read-out: DDA + lipid): 44 mm; zone of inhibition at 200 µg/disc (P. acnes NCTC 737 [6]; P. acnes NCTC 737, sodium chloride 100 mM, 200 μg per disc (2,6-dimethoxy-p-benzoquinone 100 μg), read-out: DDA + salt): 43.4 mm; effect of lipid on antimicrobial activity (P. acnes NCTC 737 [6]; P. acnes NCTC 737, activity increases in the presence of lipid): potentiated; zone of inhibition at 200 µg/disc (P. acnes NCTC 737 [7]; NCTC737, P. acnes NCTC 737, unsupplemented agar, 200 μg per disc (2,6-dimethoxy-p-benzoquinone 100 μg), read-out: DDA (diameter of zone of inhibition)): 33.4 mm; MIC (S. aureus ATCC 29213 [8]; Staphylococcus aureus, ATCC29213, S. aureus ATCC 29213, Mueller-Hinton broth pH 7.2, aerobic, 37° C., 24 hours, read-out: MIC): 7.8 µg/mL (≈ 42.8 µM)
4 | CC1=C(Br)C(=O)C(C(C)C)=C(Br)C1=O [2,5-dibromo-6-isopropyl-3-methyl-p-benzoquinone] | – | 0.5 | – | – | – | – | 0.25 | – | – | – | – | – | – | MBC (S. aureus ATCC 29213 [1]; Staphylococcus aureus, ATCC29213): 1.95 µg/mL (≈ 6.06 µM); zone of inhibition at 200 µg/disc (S. aureus ATCC 29213 [2]; read-out: DDA + blood): 19.3 mm; zone of inhibition at 200 µg/disc (S. aureus ATCC 29213 [2]; read-out: DDA + lipid): 23 mm; zone of inhibition at 200 µg/disc (S. aureus ATCC 29213 [2]; read-out: DDA + salt): 42.3 mm; MBC (P. acnes NCTC 737 [3]; Cutibacterium acnes, NCTC737): 3.9 µg/mL (≈ 12.1 µM); zone of inhibition at 200 µg/disc (S. aureus ATCC 29213 [4]; ATCC29213, read-out: DDA (diameter of zone of inhibition)): 39.5 mm; activity against P. acnes NCTC 737 (in words) (P. acnes NCTC 737 [5]): strongly so; MIC (P. acnes NCTC 737 [5]; Cutibacterium acnes, NCTC737, 72 h, pH 6): 0.98 µg/mL (≈ 3.04 µM); zone of inhibition at 200 µg/disc (P. acnes NCTC 737 [6]; read-out: DDA + lipid): 34.7 mm; zone of inhibition at 200 µg/disc (P. acnes NCTC 737 [6]; read-out: DDA + salt): 71.2 mm; zone of inhibition at 200 µg/disc (P. acnes NCTC 737 [7]; NCTC737, read-out: DDA (diameter of zone of inhibition)): > 90 mm; activity against S. aureus ATCC 29213 (in words) (S. aureus ATCC 29213 [8]): strongly so; MIC (S. aureus ATCC 29213 [8]; Staphylococcus aureus, ATCC29213, 24 h, pH 7.2): 0.98 µg/mL (≈ 3.04 µM)
